Laboratory results reported in article PMC11940194, “Synthesis, Antiproliferative Activity, and ADME Profiling of Novel Racemic and Optically Pure Aryl-Substituted Purines and Purine Bioisosteres” (Biomolecules, 2025).

Legend:
[1] = Metabolic stability in mouse liver microsomes; assay type: in vitro ADME; details: mouse liver microsomes
Text: Mouse liver microsomes were obtained from Corning Life Sciences (Corning, NY, USA). DMSO, nicotinamide adenine dinucleotide phosphate (NADP), glucose-6-phosphate, glucose-6-phosphate dehydrogenase, magnesium chloride, propranolol, caffeine, diclofenac, and phosphate-buffered saline (PBS) were purchased from Sigma (St. Louis, MO, USA). Acetonitrile (ACN) and methanol (MeOH) were obtained from Merck (Darmstadt, Germany). Testosterone was purchased from Steraloids (Newport, RI, USA). Metabolic stability was assessed in mouse liver microsomes. Compounds (final concentration of 1 µM, 0.03% DMSO v/v) were incubated in duplicate in phosphate buffer (50 mM, pH 7.4) at 37 °C together with mouse liver microsomes in the absence and presence of the NADPH cofactor (0.5 mM nicotinamide adenine dinucleotide phosphate, 5 mM glucose-6-phosphate, 1.5 U/mL glucose-6-phosphate dehydrogenase, and 0.5 mM magnesium chloride). Incubation and sampling were performed on a Freedom EVO 200 (Tecan, Männedorf, CH, Switzerland) at […], 10, 20, 30, 45, and 60 min. The reaction was quenched using 3 volumes of a mixture of ACN/MeOH (2:1) containing internal standard (diclofenac), centrifuged, and the supernatants were analyzed using LC-MS/MS. The metabolic activity of the microsomes was verified via simultaneous analysis of several controls including testosterone, propranolol, and caffeine. The in vitro half-life (t1/2) was calculated using GraphPad Prism (v9.0 software) non-linear regression of % of parent compound remaining versus time. In vitro clearance, expressed as µL/min/mg, was estimated from the in vitro half-life (t1/2) and normalized for the protein amount in the incubation mixture, assuming 52.5 mg of protein per gram of liver and using constant values for mouse liver weight/body weight [87.5 g/kg] and mouse liver blood flow (LBF) [131 mL/min/kg].
(§1) All samples were quantified using tandem mass spectrometry coupled to liquid chromatography. Samples were analyzed on a Sciex API4000 Triple Quadrupole Mass Spectrometer (Sciex, Division of MDS Inc., Toronto, Canada) coupled to a Shimadzu Nexera X2 UHPLC frontend (Kyoto, Japan). Samples were injected onto a UHPLC column (HALO2 C18, 2.1 × 20 mm, 2 µm or Luna Omega 1.6 µm Polar C18 100A, 30 × 2.1 mm) and eluted with a gradient at 50 °C. The mobile phase was composed of acetonitrile/water mixture (9/1, with 0.1% formic acid) and 0.1% formic acid in deionized water. The flow rate was 0.7 mL/min under gradient conditions, leading to a total run time of 1.5–2 min. A positive ion mode with turbo spray, an ion source temperature of 550 °C, and a dwell time of 150 ms were utilized for mass spectrometric detection. Quantitation was performed using multiple reaction monitoring (MRM) at the specific transitions for each compound.

[2] = tested on: breast adenocarcinoma (MCF7) cells; test: Antiproliferative MTT assay, MCF-7; assay type: cell-based, human; details: for IC50: Homo sapiens, MCF7, 72 h incubation, MTT, mean ± SD; for SI (MCF-7): SI = [IC50 HFF]/[IC50 MCF-7]
Procedure: (§2) The human ATCC tumor cell lines breast adenocarcinoma (MCF7), colorectal carcinoma (HT-29), pancreatic ductal adenocarcinoma (CFPAC-1), hepatocellular carcinoma (HepG2), and normal skin fibroblasts (HFF) derived from ATCC (American Type Culture Collection) were cultured in Dulbecco’s Modified Eagle Medium (DMEM) or Minimum Essential Medium (MEM) supplemented with 10% fetal bovine serum (FBS), 2 mM L-glutamine, 100 U/mL penicillin, and 100 µg/mL streptomycin (Lonza, Basel, Switzerland) in a humidified atmosphere with 5% CO2 at 37 °C. For the experiment, carcinoma cell lines and normal human cell lines were seeded in 96-well microtiter plates at a density of 3000 cells per well and 5000 cells per well, respectively, depending on the doubling time of the specific cell line. The test substances were then added at fivefold, tenfold dilutions (0.01 to 100 µM), freshly prepared in the growth medium on the day of testing, and incubated for a further 72 h. After 72 h of incubation, the growth rate of the cells was determined using the MTT assay according to the manufacturer’s guidelines. […] The IC50 values were calculated from the dose–response curves using linear regression analysis. The experiment was performed in tetraplicates in two individual experiments.
(§3) Newly synthesized compounds were evaluated for their cytotoxic activity in vitro against four human cancer cell lines, including human breast adenocarcinoma (MCF-7), ductal pancreatic adenocarcinoma (CFPAC-1), colorectal carcinoma (HT-29), and hepatocellular carcinoma (HepG2), as well as on non-cancerous skin fibroblasts (HFF-1), to check for non-specific toxicity. Furthermore, 5-Fluorouracil (5-FU) was used as a reference drug. The results are expressed as 50% inhibitory concentration (IC50) values and are listed in Table 2, Table 3, Table 4 and Table 5.

[3] = tested on: normal skin fibroblasts (HFF-1); test: Cytotoxicity MTT assay, normal skin fibroblasts; assay type: cell-based, human; details: 72 h incubation, mean ± SD
Procedure: as §2, §3

[4] = tested on: pancreatic ductal adenocarcinoma (CFPAC-1) cells; test: Antiproliferative MTT assay, CFPAC-1; assay type: cell-based, human; details: for IC50: 72 h incubation, MTT, mean ± SD; for SI (CFPAC-1): SI = [IC50 HFF]/[IC50 CFPAC-1]
Procedure: as §2, §3

[5] = tested on: colorectal carcinoma (HT-29) cells; test: Antiproliferative MTT assay, HT-29; assay type: cell-based, human; details: for IC50: 72 h incubation, MTT, mean ± SD; for SI (HT-29): SI = [IC50 HFF]/[IC50 HT-29]
Procedure: as §2, §3

[6] = tested on: hepatocellular carcinoma (HepG2) cells; test: Antiproliferative MTT assay, HepG2; assay type: cell-based, human; details: for IC50: Homo sapiens, HepG2, 72 h, 72 h incubation, MTT, mean ± SD; for SI (HepG2): SI = [IC50 HFF]/[IC50 HepG2]
Procedure: as §2, §3

[7] = tested on: MDCKII-MDR1 cells (P-glycoprotein); test: MDCKII-MDR1 permeability assay; assay type: in vitro ADME, canine cells with over-expressed human MDR1 gene; details: for Permeability: permeability class
Procedure: (§4) MDCKII-hMDR1 cells were obtained from Solvo Biotechnology, Hungary. DMEM, fetal bovine serum, Glutamax-100, Antibiotic/Antimycotic, DMSO, Dulbecco’s phosphate-buffered saline, and MEM Non-essential amino acids were purchased from Sigma (St. Louis, MO, USA). Bi-directional permeability and P-glycoprotein substrate assessments were carried out in Madin-Darby canine epithelial cells with the over-expressed human MDR1 gene (MDCKII-MDR1), coding for P-glycoprotein. Experimental procedures, as well as cell culture conditions, were the same as previously described. Briefly, compounds (10 µM, 1% DMSO v/v) in duplicate were incubated at 37 °C for 60 min with cell monolayer on 24-well Millicell inserts (Millipore, Burlington, MA, USA) with and without the P-glycoprotein inhibitor Elacridar (2 µM, International Laboratory, San Francisco, CA, USA). The inhibition of P-glycoprotein was verified by amprenavir (Moravek Biochemicals Inc, Brea, CA, USA) and monolayer integrity using Lucifer yellow (Sigma, St. Louis, MO, USA). LC-MS/MS measured compound concentrations and Lucifer yellow was measured on an Infinite F500 (Tecan, Männedorf, CH, Switzerland) using excitation of 485 nm and emission of 530 nm.
as §1

[8] = tested on: P-glycoprotein (human MDR1); test: MDCKII-MDR1 permeability assay; assay type: in vitro ADME, canine cells with over-expressed human MDR1 gene; details: dog, MDCK-MDR1; for Papp A→B at 60 min, 10 µM / Papp B→A at 60 min, 10 µM: 37 °C; for efflux ratio at 60 min, 10 µM: <2 no efflux, >2 active efflux; for Papp at 60 min, 10 µM: permeability class
Procedure: as §4, §1

| Compound | Clearance Class. [1] | IC50 [2] [µM] | IC50 ([4]; Homo sapiens, CFPAC-1, 72 h) [µM] | IC50 ([5]; Homo sapiens, HT-29, 72 h) [µM] | IC50 [6] [µM] | Permeability [7] | Papp A→B at 60 min, 10 µM [8] [×10⁻⁶ cm/s] | Papp B→A at 60 min, 10 µM [8] [×10⁻⁶ cm/s] | efflux ratio at 60 min, 10 µM [8] | Papp at 60 min, 10 µM [8] [×10⁻⁶ cm/s] | IC50 [4] [µM] | IC50 [5] [µM] | Efflux Ratio ([7]; <2 no efflux, >2 active efflux) | IC50 ([3]; Homo sapiens, HFF-1, 72 h) [µM] | SI (HT-29) [5] | SI (HepG2) [6] | SI (CFPAC-1) [4] | SI (MCF-7) [2] | IC50 [3] [µM] |
| --- | --- | --- | --- | --- | --- | --- | --- | --- | --- | --- | --- | --- | --- | --- | --- | --- | --- | --- | --- |
| OC(Cn1cc(Cn2cnc3c(Cl)ncnc32)nn1)c1ccc(Br)cc1 (stereo not drawn) [Compound 39b, 6-Chloro-9-((1-(2-hydroxy-2-(4-bromophenyl)ethyl)-1H-1,2,3-triazol-4-yl)methyl)-9H-purine] |  | 21 ± 14 | 15 ± 1 | 50 ± 0.6 | 44 ± 8.1 | MODERATE | 3.1 | 69.6 | 22.5 |  |  |  |  | 30 ± 2.7 | 0.6 | 0.7 |  |  |  |
| OCC(c1ccc(Br)cc1)n1cc(Cn2cnc3c(Cl)ncnc32)nn1 (stereo not drawn) [Compound 39a, 6-Chloro-9-((1-(2-hydroxy-1-(4-bromophenyl)ethyl)-1H-1,2,3-triazol-4-yl)methyl)-9H-purine] |  | 14 ± 4.8 | 46 ± 3.8 | 31 ± 2.6 | 16 ± 5.6 |  |  | 58 | 68.1 | ≤ 2 |  |  |  | 14 ± 4.7 | 0.5 | 0.9 |  |  |  |
| OCC(c1ccc(Br)cc1)n1cc(Cn2cnc3c(Cl)nccc32)nn1 (stereo not drawn) [Compound 49a, 4-Chloro-1-((1-(2-hydroxy-1-(4-bromophenyl)ethyl)-1H-1,2,3-triazol-4-yl)methyl)-1H-imidazo[4,5-c]pyridine] | LOW (<30% low) | 77 ± 3 | 77 ± 0.5 | 77 ± 1.1 | 66 ± 22.8 |  | ≤ 2 | 41.1 | 41.4 | ≤ 2 |  |  |  | 90 ± 4.04 |  | 1.4 |  |  |  |
| OCC(c1ccc(Br)cc1)n1cc(Cn2cnc3ccccc32)nn1 (stereo not drawn) [Compound 34a, 1-((1-(2-Hydroxy-1-(4-bromophenyl)ethyl)-1H-1,2,3-triazol-4-yl)methyl)-1H-benzimidazole] | LOW (<30% low) | 22 ± 5.1 | 15 ± 8.9 | 39 ± 4.3 | 35 ± 14.2 |  | ≤ 2 | 65.7 | 32.8 | ≤ 2 |  |  |  | 42 ± 8.3 |  |  | 2.8 |  |  |

Further lines, with some results ahead:

| Clearance Class. [1] | IC50 [2] [µM] | IC50 ([4]; Homo sapiens, CFPAC-1, 72 h) [µM] | IC50 ([5]; Homo sapiens, HT-29, 72 h) [µM] | IC50 [6] [µM] | Permeability [7] | Papp A→B at 60 min, 10 µM [8] [×10⁻⁶ cm/s] | Papp B→A at 60 min, 10 µM [8] [×10⁻⁶ cm/s] | efflux ratio at 60 min, 10 µM [8] | Papp at 60 min, 10 µM [8] [×10⁻⁶ cm/s] | IC50 [4] [µM] | IC50 [5] [µM] | Efflux Ratio ([7]; <2 no efflux, >2 active efflux) | Compound | IC50 ([3]; Homo sapiens, HFF-1, 72 h) [µM] | SI (HT-29) [5] | SI (HepG2) [6] | SI (CFPAC-1) [4] | SI (MCF-7) [2] | IC50 [3] [µM] |
| --- | --- | --- | --- | --- | --- | --- | --- | --- | --- | --- | --- | --- | --- | --- | --- | --- | --- | --- | --- |
| LOW (<30% low) | 36 ± 23.1 | 16 ± 2.6 | 6 ± 0.6 | 8 ± 0.6 | MODERATE | 2.2 | 45.2 | 21 |  |  |  |  | O[C@@H](Cn1cc(Cn2cnc3c(Cl)ncnc32)nn1)c1ccc(C(F)(F)F)cc1 [Compound (R)-40b, (R)-6-Chloro-9-((1-(2-hydroxy-2-(4-(trifluoromethyl)phenyl)ethyl)-1H-1,2,3-triazol-4-yl)methyl)-9H-purine] | 6 ± 4.8 | 1.0 | 0.7 |  |  |  |
|  | > 100 | > 100 | > 100 | > 100 |  |  |  |  |  |  |  |  | OC(Cn1cc(Cn2ccc3ccccc32)nn1)c1ccc(F)cc1 (stereo not drawn) [Compound 27b, 1-((1-(2-Hydroxy-2-(4-fluorophenyl)ethyl)-1H-1,2,3-triazol-4-yl)methyl)-1H-indole] | > 100 |  |  |  |  |  |
|  | 1 ± 0.8 | 0.14 ± 0.1 | 0.23 | 9 ± 1.3 |  |  |  |  |  | 0.1 ± 0.1 | 0.2 |  | O=c1[nH]cc(F)c(=O)[nH]1 [Compound 5-FU, 5-Fluorouracil, reference compound] | 0.94 | 4.5 | 0.1 |  | 0.9 | 0.9 |
| low clearance | 28 ± 6.7 | 25 ± 6.4 | 14 ± 8.1 | 15 ± 9 |  |  |  |  |  |  |  | higher efflux values | OC(Cn1cc(Cn2cnc3c(Cl)ncnc32)nn1)c1ccc(C(F)(F)F)cc1 (stereo not drawn) [Compound 40b, 6-Chloro-9-((1-(2-hydroxy-2-(4-(trifluoromethyl)phenyl)ethyl)-1H-1,2,3-triazol-4-yl)methyl)-9H-purine] | 8 ± 4.8 | 0.6 | 0.5 |  |  |  |
|  | 39 ± 10.1 | 48 ± 4.9 | 28 ± 3.8 | 46 ± 2.2 |  |  |  |  |  |  |  |  | OC(Cn1cc(Cn2ccc3c(Cl)ncnc32)nn1)c1ccc(Cl)cc1 (stereo not drawn) [Compound 43b, 4-Chloro-7-((1-(2-hydroxy-2-(4-chlorophenyl)ethyl)-1H-1,2,3-triazol-4-yl)methyl)-7H-pyrrolo[2,3-d]pyrimidine] | 32 ± 14.1 |  |  | 0.7 | 0.8 |  |
|  | 35 ± 16.2 | 35 ± 19.8 | 46 ± 18.4 | 66 ± 2.7 |  |  |  |  |  |  |  |  | OC(Cn1cc(Cn2ccc3ccccc32)nn1)c1ccc(Cl)cc1 (stereo not drawn) [Compound 28b, 1-((1-(2-Hydroxy-2-(4-chlorophenyl)ethyl)-1H-1,2,3-triazol-4-yl)methyl)-1H-indol] | > 100 |  |  | >2.9 |  |  |
